Laboratory results as given in BindingDB's records for doi:10.1016/j.ejmech.2012.02.023 (Sun Yat-Sen University, 2012).
Values belong to the molecule of their own block, whether it stands above or below them.

Assay: Inhibition of TNF-alpha-induced NF-kappaB p65 nuclear translocation in human A549 cells after 2 hrs by fluorescence assay

SMILES: O=C(/C=C/c1ccc(Cl)cc1)c1cccc(-c2cccc(F)c2)c1
IC50: 24.4 µM

SMILES: O=C(/C=C/c1cccc(Br)c1)c1cccc(-c2cccc(F)c2)c1
IC50: 11.2 µM

SMILES: COc1ccccc1/C=C/C(=O)c1cccc(-c2cccc(F)c2)c1
IC50: 35.3 µM

SMILES: COc1ccc(/C=C/C(=O)c2cccc(-c3cccc(F)c3)c2)cc1
IC50: > 50 µM

SMILES: COc1cccc(/C=C/C(=O)c2cccc(-c3cccc(F)c3)c2)c1OC
IC50: 24.1 µM

SMILES: COc1cc(/C=C/C(=O)c2cccc(-c3cccc(F)c3)c2)ccc1O
IC50: 12.9 µM

SMILES: O=C(/C=C/c1ccccc1Br)c1cccc(-c2cccc(F)c2)c1
IC50: 13.7 µM

SMILES: O=C(/C=C/c1ccc(Br)cc1)c1cccc(-c2cccc(F)c2)c1
IC50: > 50 µM

SMILES: O=C(/C=C/c1cccc(-c2ccc(F)cc2)c1)c1ccc(F)cc1
IC50: > 50 µM

SMILES: COc1ccc(/C=C/C(=O)c2cccc(Br)c2)cc1
IC50: > 50 µM

SMILES: COc1ccc(/C=C/C(=O)c2cccc(Br)c2)cc1OC
IC50: > 50 µM

SMILES: COc1ccc(/C=C/C(=O)c2cccc(Br)c2)cc1O
IC50: > 50 µM

SMILES: COc1ccc(/C=C/C(=O)c2cccc(-c3cccc(F)c3)c2)cc1O
IC50: 9.59 µM

SMILES: COc1ccc(/C=C/C(=O)c2cccc(-c3ccc(F)nc3)c2)cc1O
IC50: > 50 µM

Next, values leading:

IC50: 33.4 µM
SMILES: COc1ccc(/C=C/C(=O)c2cccc(-c3cccc(F)c3)c2)cc1OC

IC50: > 50 µM
SMILES: COc1ccc(/C=C/C(=O)c2ccc(N)c(-c3ccc(F)cc3)c2)cc1

IC50: > 50 µM
SMILES: COc1ccc(/C=C/C(=O)c2ccc(N)c(-c3ccc(F)cc3)c2)cc1OC

IC50: 10.3 µM
SMILES: COc1ccc(OC)c(/C=C/C(=O)c2ccc(N)c(-c3ccc(F)cc3)c2)c1

IC50: 6.83 µM
SMILES: COc1cc(/C=C/C(=O)c2ccc(N)c(-c3ccc(F)cc3)c2)ccc1O

IC50: 11.6 µM
SMILES: COc1cc(/C=C/C(=O)c2ccc(N)c(-c3ccc(F)cc3)c2)cc(OC)c1OC

IC50: > 50 µM
SMILES: Nc1ccc(C(=O)/C=C/c2ccc(O)c(F)c2)cc1-c1ccc(F)cc1

IC50: > 50 µM
SMILES: COc1cc(/C=C/C(=O)c2ccc(N)c(-c3ccc(F)cc3)c2)cc(Br)c1O

IC50: 21.3 µM
SMILES: COc1ccc(-c2cc(C(=O)/C=C/c3ccc(F)cc3)ccc2N)cc1OC

IC50: 1.7 µM
SMILES: COc1ccc(/C=C/C(=O)c2ccc(N)c(-c3ccc(OC)c(OC)c3)c2)c(OC)c1

IC50: 3.19 µM
SMILES: COc1ccc(OC)c(/C=C/C(=O)c2ccc(N)c(-c3ccc(OC)c(OC)c3)c2)c1

IC50: 11.9 µM
SMILES: COc1ccc(-c2cc(C(=O)/C=C/c3cccc(OC)c3OC)ccc2N)cc1OC

IC50: > 50 µM
SMILES: COc1ccc(/C=C/C(=O)c2cccc(-c3ccc(F)cc3)c2)cc1

IC50: > 50 µM
SMILES: COc1ccc(/C=C/C(=O)c2cccc(-c3ccc(F)cc3)c2)cc1OC
